Earlier results in patent publication US20240293435A1, “Methods and Compositions for Treating Human Disorders Using D-Cycloserine and a Psychedelic Agent” (William & Mary, priority 2023, published 2024).

How the values were obtained:
[1] = tested on: Mycobacterium tuberculosis strains; details: typical Mycobacterium tuberculosis strains

N[C@@H]1CON=C1O [DCS, 3-Isoxazolidinone, 4-amino-, (4R)-(9CI)]
benefit on Alzheimer's Disease (Alzheimer's Disease; daily administration of 100 mg (Tsai et al. 1999)): positive benefit
benefit for treatment of Alzheimer's Disease (Alzheimer's Disease; up to 50 mg daily dosing, multi-center 410-patient trial (Fakouhi et al. 1995)): did not have a significant benefit
serum concentrations generally maintained (dose of 500 mg/day, chronic treatment): 25000 to 30000 ng/mL
half-life (oral capsules): 10 h
time to peak serum concentrations after dosing (oral capsules): 3 to 8 h
minimum inhibitory concentrations (MIC) in vitro [1]: 6 to 25 µg/mL
